The values that follow come from PMC7927014, “Novel Small Molecule Hsp90/Cdc37 Interface Inhibitors Indirectly Target K-Ras-Signaling” (Cancers, 2021).

The subject of this assay is H-RasG12V nanoclustering. The assay can be described thus: H-RasG12V nanoclustering-FRET (FLIM-FRET) in HEK cells. The format is cell-based. The following applies: 24 h, conglobatin A 2 μM, salinomycin 1.3 μM, CAY10585 10 μM. How it is done: In total, 80,000 HEK cells were seeded in 12-well plates containing sterilized 16-mm coverslips and 1 mL medium. The next day, the cells were transfected using jetPRIME or FuGENE HD transfection reagent. For the donor fluorophore-only samples, the cells were transfected with 500 ng mGFP-tagged RasG12V plasmid. For the nanoclustering-FRET pair samples, the cells were transfected with both the donor and acceptor constructs, i.e., pmGFP- and pmCherry- RasG12V at a plasmid ratio of 1:3, respectively, and a total of 800 ng plasmids. The next day, the cells were treated with either 0.1% DMSO vehicle control or the indicated concentrations of compounds diluted in DMEM or RPMI medium for 24 h. For the gene silencing studies, the cells were transfected with the indicated amounts of siRNAs, together with the FRET pair constructs. The plasmids and siRNA were diluted in the same jetPRIME transfection buffer, followed by the addition of jetPRIME. After 48 h of transfection, the cells were fixed in 4% paraformaldehyde for 10 to 15 min, before being mounted onto slides with Mowiol 4–88 (cat. no. 81381, Sigma-Aldrich). The lifetime of the mGFP donor fluorophore was measured using a fluorescence microscope (Zeiss AXIO Observer D1) equipped with a fluorescence lifetime imaging attachment (Lambert Instruments), as described previously in detail. The apparent FRET efficiency (Eapp) was calculated as Eapp = (1 − τDA/τD) × 100%, with the measured fluorescence lifetimes τDA of the FRET sample and the τD of the donor-only sample.

For the compound `C/C1=C\[C@H](C)C[C@H](C)[C@H](Cc2cnco2)OC(=O)/C(C)=C/[C@H](C)C[C@H](C)[C@H](Cc2cnco2)OC1=O` [conglobatin A, reference compound], the “H-RasG12V nanoclustering-FRET” value is on record as “not H-RasG12V-nanoclustering”.
